Where “and” joins values, the source holds several entries; their conditions need not be identical. Equal values may be shown once.
What was measured:
TrxR from E. coli = TrxR from E. coli (Escherichia coli, UniProt P0A9P4); assay: Inhibition of isolated bacterial TrxR, DTNB-based assay; assay type: biochemical; parameters: purchased Sigma-Aldrich; conditions: for TrxR activity, % of control: compounds at 0.5 µM, n = 2, Table S13; for IC50: isolated E. coli TrxR, DTNB assay, ± standard deviation, n = 3
Procedure: The inhibition of isolated TrxR from E. coli was determined for the selected monocarbene gold(I/III) complexes 2a–c and 4b–c using a DTNB-based assay (Table 3). […] The inhibition of bacterial TrxR for compound 2a was investigated in our previous report (Table 3).
S2.3. Inhibition of bacterial TrxR from E. coli
The TrxR (E. coli) inhibition assay was performed according to previously published procedures.[8] The assay is partly based on the procedure developed by Lu et al[9] and makes use of the reduction of DTNB (5,5′-dithiobis-(2-nitrobenzoic acid)). Solutions of E. coli TrxR (10.1 U/mL) and E. coli thioredoxin (Trx) (312 μg/mL) (both purchased from Sigma-Aldrich) were prepared in distilled water. Stock solutions of the test compounds (2 mM) were prepared in DMSO and serially diluted with TE buffer (Tris-HCl 50 mM, EDTA 1 mM, pH 7.5). 20 μL of these solutions or TE buffer without the test compounds (positive control) were mixed with the TrxR solution (10 μL), the Trx solution (10 μL) and 100 µl of NADPH (200 μM) in TE buffer in a well on a 96-well plate. As a blank control, 200 μM NADPH in TE buffer (100 μL) mixed with a DMSO / buffer mixture (40 μL) was used (final concentrations of DMSO: 0.5% v/v). The plate was incubated for 75 min at 25°C with moderate shaking. After incubation, 100 μL of a reaction mixture (TE buffer containing 200 μM NADPH and 5 mM DTNB) was added to each well to initiate the reaction. After thorough mixing, the formation of 5-TNB was monitored by a microplate reader at 405 nm in 35 s intervals (10 measurements). The values were corrected by subtraction of the blank solution absorption values. The increase in concentration of 5-TNB followed a linear trend (r2≥ 0.990) and the enzymatic activities were calculated as the gradients (increase in absorbance per second) thereof. […]
for each test compound, where the highest test compound concentration was used and the enzyme solution was replaced by TE buffer. The inhibition is presented as the mean IC50 values and standard deviations obtained in three independent experiments.
Table S13. Activity of TrxR from E. coli in presence of compounds at 0.5 µM (n = 2, n.d.= not

[1] = test system: methicillin-resistant Staphylococcus aureus DSM 11822; assay: Antibacterial activity (MIC, curve fitting); assay type: cell-based
Procedure: (§1) The antibacterial activity of all gold complexes was assessed against six pathogenic bacterial strains, including two Gram-positive species, i.e. Enterococcus faecium and methicillin-resistant Staphylococcus aureus (MRSA), and four Gram-negative species, i.e. Acinetobacter baumannii, Escherichia coli, Klebsiella pneumoniae, and Pseudomonas aeruginosa. Minimum inhibitory concentrations (MICs) were determined using a curve-fitting technique.
(§2) S2.1. Antibacterial Studies
(§3) Bacterial cultures were prepared by overnight aerobic incubation at 37 °C. Gram-negative strains were cultivated in Müller Hinton broth supplemented with 1% glucose at pH 7.2, while Gram-positive strains were grown in Trypticase soy yeast extract medium (TSY) with a composition of 30 g/l trypticase soy broth, 3 g/l yeast extract, and pH 7.2. The cultures were adjusted to an OD600 of 0.001, resulting in a final starting OD600 of 0.0005 for the subsequent tests. For testing, 25 μL of the prepared culture was combined with 25 μL of serially diluted test compounds in 384 well plates, following established protocols for different strains. Screening was performed at compound concentrations of 0.5, 5, and 50 µM, and for selected compounds, growth inhibition curves were recorded using DMSO stock solutions […]
(§4) Positive control compounds, namely linezolid (for MRSA strains), ciprofloxacin (for E. faecium and E. coli), and amikacin (for P. aeruginosa), were included. The maximum DMSO concentration in the assay […]
(§5) After an 18-hour incubation at 37 °C under moist conditions, the optical density at 600 nm was measured using a Fusion Universal Microplate Analyser (Perkin–Elmer, Waltham, USA). The minimum inhibitory concentration (MIC) values, representing the […]
(§6) fitting with Sigma Plot. The bacterial strains used included Gram-negative strains: Escherichia coli (DSM 1116), A. baumannii (DSM30007), K. pneumoniae (DSM111678), and Pseudomonas aeruginosa PA7 (DSM 24068); and Gram-positive strains: E. faecium (DSM20477) and Staphylococcus aureus MRSA

[2] = test system: Escherichia coli DSM 1116; assay: Antibacterial activity (MIC, curve fitting); assay type: cell-based; conditions: for MIC, E.c.: Table 2, Escherichia coli DSM 1116, 18 h, 37 °C; for MIC, E. coli: Table S12, ± standard error of the mean
Procedure: as §1, §2, §3, §4, §5, §6

[3] = test system: Acinetobacter baumannii DSM30007; assay: Antibacterial activity (MIC, curve fitting); assay type: cell-based; conditions: for MIC, A.b.: Table 2, Acinetobacter baumannii DSM30007, 18 h, 37 °C; for MIC, A. baumannii: Table S12, ± standard error of the mean
Procedure: as §1, §2, §3, §4, §5, §6

[4] = test system: Klebsiella pneumoniae DSM111678; assay: Antibacterial activity (MIC, curve fitting); assay type: cell-based; conditions: for MIC, K.p.: Table 2, Klebsiella pneumoniae DSM111678, 18 h, 37 °C; for MIC, K. pneumoniae: Table S12, ± standard error of the mean
Procedure: as §1, §2, §3, §4, §5, §6

[5] = test system: Pseudomonas aeruginosa DSM 24068; assay: Antibacterial activity (MIC, curve fitting); assay type: cell-based; conditions: for MIC, P.a.: Table 2, Pseudomonas aeruginosa DSM 24068, 18 h, 37 °C; for MIC, P. aeruginosa: Table S12, ± standard error of the mean
Procedure: as §1, §2, §3, §4, §5, §6

[6] = test system: Enterococcus faecium DSM20477; assay: Antibacterial activity (MIC, curve fitting); assay type: cell-based; conditions: for MIC, E.f.: Table 2, Enterococcus faecium DSM20477, 18 h, 37 °C; for MIC, E. faecium: Table S12, ± standard error of the mean
Procedure: as §1, §2, §3, §4, §5, §6

[7] = test system: MDA-MB-231 breast cancer cells; assay: Antiproliferative activity, crystal violet assay; assay type: cell-based; conditions: 96 h exposure, SD in parentheses, n = 3
Procedure: (§7) The antiproliferative potential of the gold–NHC complexes was determined in A549 lung carcinoma cells, MDA-MB-231 breast cancer cells, MCF-7 breast adenocarcinoma cells, and HT-29 colon carcinoma cells (Table 1). Vero E6 African green monkey kidney cells served as a reference cell line to check for possible tumour selectivity. Auranofin (AF) was used as an established reference drug.[15,17] […]
(§8) S2.2. Cytotoxicity and Anticancer Studies
(§9) Cell culture and cytotoxicity
(§10) Cell lines were sourced from DSMZ (German Collection of Microorganisms and Cell Cultures GmbH) and maintained through standard procedures in Dulbecco's Modified Eagle Medium (DMEM) supplemented with 10% fetal calf serum and 50 mg/L gentamycin. Antiproliferative effects were assessed using a well-established assay protocol. In brief, 100 μL volumes of A549 cells (13,243 cells per mL), HT-29 cells (14,657 cells per mL), MDA-MB-231 cells (6,613 cells per mL), or MCF-7 cells (6,917 cells per mL) were transferred into the wells of 96-well plates and incubated at 37°C/5% CO2 for 72 […]
(§11) Freshly prepared stock solutions of the compounds in DMSO were diluted with the respective cell culture medium to achieve graded concentrations (final concentration of DMSO: 0.1% v/v). After 72 hours (A549, HT-29) or 96 hours (MCF-7, MDA-MB-231) of exposure, the cell biomass was assessed through crystal violet staining, and the IC50 value was determined as the concentration causing 50% inhibition of cell proliferation compared to an untreated control. Results were calculated as the mean values of three independent experiments.

[8] = test system: HT-29 colon carcinoma cells; assay: Antiproliferative activity, crystal violet assay; assay type: cell-based; conditions: 72 h exposure, SD in parentheses, n = 3
Procedure: as §7, §8, §9, §10, §11

[9] = test system: MCF-7 breast adenocarcinoma cells; assay: Antiproliferative activity, crystal violet assay; assay type: cell-based; conditions: 96 h exposure, SD in parentheses, n = 3
Procedure: as §7, §8, §9, §10, §11

[10] = test system: A549 lung carcinoma cells; assay: Antiproliferative activity, crystal violet assay; assay type: cell-based; conditions: 72 h exposure, SD in parentheses, n = 3
Procedure: as §7, §8, §9, §10, §11

[11] = test system: Vero E6 African green monkey kidney cells; assay: Antiproliferative activity in non-tumour reference cell line; assay type: cell-based; conditions: for IC50: Vero E6 non-tumour reference cell line, SD in parentheses, n = 3
Procedure: as §7, §8, §9, §10, §11

[12] = Table 2, MRSA DSM 11822, 18 h, 37 °C
[13] = Table S12, ± standard error of the mean

Chain of TrxR from E. coli (P0A9P4 2-321): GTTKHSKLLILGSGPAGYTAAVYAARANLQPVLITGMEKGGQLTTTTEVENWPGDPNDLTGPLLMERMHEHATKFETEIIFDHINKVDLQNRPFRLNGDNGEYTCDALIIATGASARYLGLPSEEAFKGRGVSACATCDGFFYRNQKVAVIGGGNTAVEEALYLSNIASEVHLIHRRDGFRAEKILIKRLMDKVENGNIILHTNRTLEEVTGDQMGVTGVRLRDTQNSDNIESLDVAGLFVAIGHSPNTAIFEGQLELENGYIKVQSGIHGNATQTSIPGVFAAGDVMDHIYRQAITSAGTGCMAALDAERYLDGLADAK

SMILES | TrxR activity, % of control (TrxR from E. coli) | IC50 (TrxR from E. coli) | MIC, MRSA [1, 12] | MIC, MRSA [1, 13] | MIC, E.c. [2] | MIC, E. coli [2] | MIC, A.b. [3] | MIC, A. baumannii [3] | MIC, K.p. [4] | MIC, K. pneumoniae [4] | MIC, P.a. [5] | MIC, P. aeruginosa [5] | MIC, E.f. [6] | MIC, E. faecium [6] | IC50 [7] | IC50 [8] | IC50 [9] | IC50 [10] | IC50 [11] | Tumour selectivity: tumour cell lines in comparison to Vero E6 ([11]; comparison of IC50 in tumour cell lines and non-tumour Vero E6)
COC(=O)c1cn(C)[c]([Au-][Cl])[n+]1C [2b] | 8.9 % of control | 0.293 ± 0.163 µM | 10 µM and 10 ± 0 µM | 10.35 ± 0 µM | 41 µM and 41 ± 0 µM | 41.39 ± 0 µM | 10 µM and 10 ± 0 µM | 10.35 ± 0 µM | 41 µM and 41 ± 0 µM | 41.39 ± 0 µM | >100 µM | > 100 µM | 10 µM and 10 ± 0 µM | 10.35 ± 0 µM | 12.8 µM | 19.8 µM | 23.8 µM | 22.7 µM |  | 
CCOC(=O)c1cn(C)[c]([Au-][Cl])[n+]1C [2c] | 13.8 % of control | 0.133 ± 0.044 µM | 10 µM and 10 ± 0 µM | 9.98 ± 0 µM | 40 µM and 40 ± 0 µM | 39.94 ± 0 µM | 10 µM and 10 ± 2 µM | 9.98 ± 2.07 µM | 40 µM and 40 ± 0 µM | 39.94 ± 0 µM | >100 µM | > 100 µM | 10 µM and 10 ± 0 µM | 9.98 ± 0 µM | 8.9 µM | 22.1 µM | 9.93 µM | 10.4 µM | 13.1 µM | 
Cn1cc(C(=O)O)[n+](C)[c]1[Au-][c]1n(C)cc(C(=O)O)[n+]1C.[Cl-] [3a] |  |  |  | > 100 µM |  | 62.4 ± 0 µM |  | 31.2 ± 4.90 µM |  | 62.4 ± 0 µM |  | 62.4 ± 0 µM |  | > 100 µM |  |  |  |  |  | 
COC(=O)c1cn(C)[c]([Au-][c]2n(C)cc(C(=O)OC)[n+]2C)[n+]1C.O=S(=O)([O-])C(F)(F)F [3b] | 106 % of control |  |  | > 100 µM |  | > 100 µM |  | > 100 µM |  | > 100 µM |  | > 100 µM |  | > 100 µM | 19.2 µM | 27.7 µM | 34.4 µM | 5.21 µM | > 100 µM | clear preference for the tumour cell lines

— article PMC11342128, “Gold(I) and gold(III) carbene complexes from the marine betaine norzooanemonin: inhibition of thioredoxin reductase, antiproliferative and antimicrobial activity” (RSC Medicinal Chemistry, 2024)
